Source: US20240336654A1, “ANTIMICROBIAL PEPTIDOMIMETICS” (SPEXIS AG, priority 2021, published 2024)
Where a SMILES comes first, the peptide text is derived from it. Bridges are numbered along the chain shown (N, C = ends). [ ]: non-standard residue; d: D form. The star is where a group is joined. Val(Nα-amidino) = CC(C)[C@H](NC(=N)N)C(=O)*; Hyp = O=C(O)[C@@H]1C[C@@H](O)CN1; Agb = N=C(N)NCC[C@H](N)C(=O)O; Pen = CC(C)(S)[C@H](N)C(=O)O; X1 = CC[C@H](NC(=N)N)C(=O)*; dDab = NCC[C@@H](N)C(=O)O; Orn = NCCC[C@H](N)C(=O)O; Dab = NCC[C@H](N)C(=O)O

Columns and labels:
Assay type in all cases: cell-based
[1] = system: human red blood cells (hRBC); settings: red cells of human, 1 h, 200 μg/mL
Procedure, shortened: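 Percent hemolysis derived from OD540 of supernatants relative to full lysis by 2.5% Triton X-100 (PBS baseline). Washed fresh human erythrocytes (20% v/v) were exposed to 200 μg/mL peptide for 1 h at 37 °C with shaking.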

[2] = system: Escherichia coli MCR-1 Af 45; settings: MCR-1 Af 45
Procedure, shortened: (§1)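 MICs were determined by CLSI broth microdilution in cation-adjusted Mueller-Hinton II broth with about 5×10^5 CFU/mL inoculum. Peptides were tested in two-fold serial dilutions with 0.002% polysorbate 80 final. MIC in μg/mL is the lowest concentration with no visible growth after 18-20 h at 35 °C.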

[3] = system: Escherichia coli ATCC 25922; settings: ATCC 25922
Procedure, shortened: as §1

[4] = system: Klebsiella pneumoniae SSI3010; settings: SSI3010
Procedure, shortened: as §1

| SMILES | Hemolysis at 0.2 g/L [1] | Escherichia coli MCR-1 Af45 MIC [2] | Escherichia coli ATCC 25922 MIC [3] | Klebsiella pneumoniae SSI3010 MIC [4] |
| --- | --- | --- | --- | --- |
| CC[C@H](C)[C@H](NC(=O)[C@@H]1C[C@@H](O)CN1C(=O)[C@@H](NC(=N)N)C(C)C)C(=O)N[C@@H]1C(=O)N[C@@H](Cc2ccc(O)cc2)C(=O)N[C@@H](CCN)C(=O)N[C@@H](CC(N)=O)C(=O)N[C@@H](CCCNC(=N)N)C(=O)N[C@@H](CCN)C(=O)N[C@@H]([C@@H](C)O)C(=O)N[C@H](CCN)C(=O)N[C@@H](CCCCN)C(=O)N[C@@H]([C@@H](C)O)C(=O)N[C@@H](CO)C(=O)N[C@H](C(=O)N[C@@H](Cc2ccc(O)cc2)C(=O)O)CSSC1(C)C [Example 74, Gua-Val-Hyp-Ile-Pen-Tyr-Dab-Asn-Arg-Dab-Thr-^DDab-Lys-Thr-Ser-Cys-Tyr] ({Val(Nα-amidino)}-[Hyp]I[Pen]Y[Dab]NR[Dab]T[dDab]KTSCY-OH; disulfide 3-14) | <1% | 0.25 µg/mL | 0.25 µg/mL | 0.25 µg/mL |
| CC[C@H](C)[C@H](NC(=O)[C@@H]1C[C@@H](O)CN1C(=O)[C@@H](NC(=N)N)C(C)C)C(=O)N[C@@H]1C(=O)N[C@@H](Cc2ccc(O)cc2)C(=O)N[C@@H](CO)C(=O)N[C@@H](CC(N)=O)C(=O)N[C@@H](CCCNC(=N)N)C(=O)N[C@@H](CCN)C(=O)N[C@@H]([C@@H](C)O)C(=O)N[C@H](CCN)C(=O)N[C@@H](CCCCN)C(=O)N[C@@H](CCN)C(=O)N[C@@H](CCNC(=N)N)C(=O)N[C@H](C(=O)N[C@@H](Cc2ccc(O)cc2)C(=O)O)CSSC1(C)C [Example 75, Gua-Val-Hyp-Ile-Pen-Tyr-Ser-Asn-Arg-Dab-Thr-^DDab-Lys-Dab-Agb-Cys-Tyr] ({Val(Nα-amidino)}-[Hyp]I[Pen]YSNR[Dab]T[dDab]K[Dab][Agb]CY-OH; disulfide 3-14) | <1% | 0.0625 µg/mL | 0.125 µg/mL | 0.125 µg/mL |
| CC[C@H](NC(=N)N)C(=O)N1C[C@H](O)C[C@H]1C(=O)N[C@H](C(=O)N[C@@H]1C(=O)N[C@@H](Cc2ccc(O)cc2)C(=O)N[C@@H](CO)C(=O)N[C@@H](CC(N)=O)C(=O)N[C@@H](CCCNC(=N)N)C(=O)N[C@@H](CCN)C(=O)N[C@@H]([C@@H](C)O)C(=O)N[C@H](CCN)C(=O)N[C@@H](CCCCN)C(=O)N[C@@H](CCN)C(=O)N[C@@H](CCN)C(=O)N[C@H](C(=O)N[C@@H](Cc2ccc(O)cc2)C(=O)O)CSSC1(C)C)[C@@H](C)CC [Example 76, Gua-Abu-Hyp-Ile-Pen-Tyr-Ser-Asn-Arg-Dab-Thr-^DDab-Lys-Dab-Dab-Cys-Tyr] (X1-[Hyp]I[Pen]YSNR[Dab]T[dDab]K[Dab][Dab]CY-OH; disulfide 3-14) | <1% | 0.5 µg/mL | 1 µg/mL | 0.25 µg/mL |
| CC[C@H](C)[C@H](NC(=O)[C@@H]1C[C@@H](O)CN1C(=O)[C@@H](NC(=N)N)C(C)C)C(=O)N[C@@H]1C(=O)N[C@@H](Cc2ccc(O)cc2)C(=O)N[C@@H](CO)C(=O)N[C@@H](CC(N)=O)C(=O)N[C@@H](CCCNC(=N)N)C(=O)N[C@@H](CCN)C(=O)N[C@@H]([C@@H](C)O)C(=O)N[C@H](CCN)C(=O)N[C@@H](CCCCN)C(=O)N[C@@H](CCCN)C(=O)N[C@@H](CO)C(=O)N[C@H](C(=O)N[C@@H](Cc2ccc(O)cc2)C(=O)O)CSSC1(C)C [Example 77, Gua-Val-Hyp-Ile-Pen-Tyr-Ser-Asn-Arg-Dab-Thr-^DDab-Lys-Orn-Ser-Cys-Tyr] ({Val(Nα-amidino)}-[Hyp]I[Pen]YSNR[Dab]T[dDab]K[Orn]SCY-OH; disulfide 3-14) | <1% | 0.5 µg/mL | 0.25 µg/mL | 0.25 µg/mL |
| CC[C@H](C)[C@H](NC(=O)[C@@H]1C[C@@H](O)CN1C(=O)[C@@H](N)C(C)C)C(=O)N[C@H]1CCNC(=O)CC[C@@H](C(=O)N[C@@H](Cc2ccc(O)cc2)C(=O)O)NC(=O)[C@H](CCN)NC(=O)[C@H](CCN)NC(=O)[C@H](CCCCN)NC(=O)[C@@H](CCN)NC(=O)[C@H]([C@@H](C)O)NC(=O)[C@H](CCN)NC(=O)[C@H](CCCNC(=N)N)NC(=O)[C@H](CC(N)=O)NC(=O)[C@H](CO)NC(=O)[C@H](Cc2ccc(O)cc2)NC1=O [Example 78, Val-Hyp-Ile-Dab-Tyr-Ser-Asn-Arg-Dab-Thr-^DDab-Lys-Dab-Dab-Glu-Tyr] (H-V[Hyp]I[Dab]YSNR[Dab]T[dDab]K[Dab][Dab]EY-OH; lactam 4-15) | <1% | 0.125 µg/mL | 0.125 µg/mL | 0.25 µg/mL |
| CC[C@H](C)[C@H](NC(=O)[C@@H]1C[C@@H](O)CN1C(=O)[C@@H](N)C(C)C)C(=O)N[C@H]1CCC(=O)NCC[C@@H](C(=O)N[C@@H](Cc2ccc(O)cc2)C(=O)O)NC(=O)[C@H](CCN)NC(=O)[C@H](CCN)NC(=O)[C@H](CCCCN)NC(=O)[C@@H](CCN)NC(=O)[C@H]([C@@H](C)O)NC(=O)[C@H](CCN)NC(=O)[C@H](CCCNC(=N)N)NC(=O)[C@H](CC(N)=O)NC(=O)[C@H](CO)NC(=O)[C@H](Cc2ccc(O)cc2)NC1=O [Example 79, Val-Hyp-Ile-Glu-Tyr-Ser-Asn-Arg-Dab-Thr-^DDab-Lys-Dab-Dab-Dab-Tyr] (H-V[Hyp]IEYSNR[Dab]T[dDab]K[Dab][Dab][Dab]Y-OH; lactam 4-15) | <1% | 0.0625 µg/mL | 0.125 µg/mL | 0.25 µg/mL |
| CC[C@H](C)[C@H](NC(=O)[C@@H]1C[C@@H](O)CN1C(=O)[C@@H](NC(=N)N)C(C)C)C(=O)N[C@@H]1C(=O)N[C@@H](Cc2ccc(O)cc2)C(=O)N[C@@H]([C@@H](C)O)C(=O)N[C@@H](CC(N)=O)C(=O)N[C@@H](CCCNC(=N)N)C(=O)N[C@@H](CCN)C(=O)N[C@@H](CO)C(=O)N[C@H](CCN)C(=O)N[C@@H](CCCCN)C(=O)N[C@@H](CCN)C(=O)N[C@@H](CCN)C(=O)N[C@H](C(=O)N[C@@H](Cc2ccc(O)cc2)C(=O)O)CSSC1(C)C [Example 80, Gua-Val-Hyp-Ile-Pen-Tyr-Thr-Asn-Arg-Dab-Ser-^DDab-Lys-Dab-Dab-Cys-Tyr] ({Val(Nα-amidino)}-[Hyp]I[Pen]YTNR[Dab]S[dDab]K[Dab][Dab]CY-OH; disulfide 3-14) | <1% | 0.0625 µg/mL | 0.125 µg/mL | 0.125 µg/mL |
| CC[C@H](C)[C@H](NC(=O)[C@@H]1C[C@@H](O)CN1C(=O)[C@@H](NC(=N)N)C(C)C)C(=O)N[C@@H]1C(=O)N[C@@H](Cc2ccc(O)cc2)C(=O)N[C@@H]([C@@H](C)O)C(=O)N[C@@H](CC(N)=O)C(=O)N[C@@H](CCCNC(=N)N)C(=O)N[C@@H](CCN)C(=O)N[C@@H]([C@@H](C)O)C(=O)N[C@H](CCN)C(=O)N[C@@H](CO)C(=O)N[C@@H](CCN)C(=O)N[C@@H](CCN)C(=O)N[C@H](C(=O)N[C@@H](Cc2ccc(O)cc2)C(=O)O)CSSC1(C)C [Example 81, Gua-Val-Hyp-Ile-Pen-Tyr-Thr-Asn-Arg-Dab-Thr-^DDab-Ser-Dab-Dab-Cys-Tyr] ({Val(Nα-amidino)}-[Hyp]I[Pen]YTNR[Dab]T[dDab]S[Dab][Dab]CY-OH; disulfide 3-14) | <1% | 0.125 µg/mL | 0.125 µg/mL | 0.25 µg/mL |
| CC[C@H](C)[C@H](NC(=O)[C@@H]1C[C@@H](O)CN1C(=O)[C@@H](NC(=N)N)C(C)C)C(=O)N[C@@H]1C(=O)N[C@@H](Cc2ccc(O)cc2)C(=O)N[C@@H]([C@@H](C)O)C(=O)N[C@@H](CC(N)=O)C(=O)N[C@@H](CCCNC(=N)N)C(=O)N[C@@H](CCN)C(=O)N[C@@H](CO)C(=O)N[C@H](CCN)C(=O)N[C@@H](CO)C(=O)N[C@@H](CCN)C(=O)N[C@@H](CCN)C(=O)N[C@H](C(=O)N[C@@H](Cc2ccc(O)cc2)C(=O)O)CSSC1(C)C [Example 82, Gua-Val-Hyp-Ile-Pen-Tyr-Thr-Asn-Arg-Dab-Ser-^DDab-Ser-Dab-Dab-Cys-Tyr] ({Val(Nα-amidino)}-[Hyp]I[Pen]YTNR[Dab]S[dDab]S[Dab][Dab]CY-OH; disulfide 3-14) | <1% | 0.125 µg/mL | 0.125 µg/mL | 0.25 µg/mL |
| CC[C@H](C)[C@H](NC(=O)[C@@H]1C[C@@H](O)CN1C(=O)[C@@H](NC(=N)N)C(C)C)C(=O)N[C@H]1CCNC(=O)CC[C@@H](C(=O)N[C@@H](Cc2ccc(O)cc2)C(=O)O)NC(=O)[C@H](CCN)NC(=O)[C@H](CCN)NC(=O)[C@H](CCCCN)NC(=O)[C@@H](CCN)NC(=O)[C@H]([C@@H](C)O)NC(=O)[C@H](CCN)NC(=O)[C@H](CCCNC(=N)N)NC(=O)[C@H](CC(N)=O)NC(=O)[C@H](CO)NC(=O)[C@H](Cc2ccc(O)cc2)NC1=O [Example 83, Gua-Val-Hyp-Ile-Dab-Tyr-Ser-Asn-Arg-Dab-Thr-^DDab-Lys-Dab-Dab-Glu-Tyr] ({Val(Nα-amidino)}-[Hyp]I[Dab]YSNR[Dab]T[dDab]K[Dab][Dab]EY-OH; lactam 3-14) | <1% | 0.03125 µg/mL | 0.03125 µg/mL | 0.125 µg/mL |
